{"source": "patent US20220143222A1", "about": "“SUBCUTANEOUS AND INTRAMUSCULAR ADMINISTRATION OF PYRAZINE COMPOUNDS” (MediBeacon Inc., priority 2020, published 2022)", "assay": "Storage of concentrated MB-102 salt solution at 4° C. (precipitation)", "type": "physicochemical", "settings": "64.2 wt % solution in water, 4° C. for 7 days", "procedure": "MB-102 (0.300 g, 0.81 mmol), was placed in a vial (4.0 mL). Water was added (0.8 mL, D.I.) and the mixture sonicated for a brief period of time. To the mixture was added aqueous 6.25 N NaOH (2 equivalents, 1.62 mmol, 0.24 mL, added in portions; 0.020 mL×12 to effect solution) with stirring and brief periods of sonication. […] The final concentration was 300 mg (2R,2′R)-2,2′-((3,6-diaminopyrazine-2,5-dicarbonyl)bis(azanediyl))bis(3-hydroxypropanoic acid), MB-102 per mL water (w/v).\nMB-102 (0.30 g, 0.81 mmol) was weighed into a 5 mL v-vial equipped with a Teflon-covered magnetic spin vane. Choline hydroxide in water (Aldrich, 0.43 g of 46 wt %, 1.62 mmol) was added portion-wise with stirring until a solution was obtained. The total weight of the solution was 0.73 g or 64.2 wt % MB-102 di-choline salt (MW: 578.6).", "data": [{"smiles": "C[N+](C)(C)CCO.C[N+](C)(C)CCO.Nc1nc(C(=O)NC(CO)C(=O)[O-])c(N)nc1C(=O)NC(CO)C(=O)[O-]", "note": "(stereo not shown) [MB-102 di-choline salt]", "values": [{"measurement": "precipitation on storage", "result": "no precipitation"}]}]}
